Assay results as given in patent US8524691B2, “Phosphonated rifamycins and uses thereof for the prevention and treatment of bone and joint infections” (The Medicines Company, priority 2008, dated 2013).
≈ marks a conversion by molar mass, not a printed value. Where two headings read alike, the source gives them in different places.

Columns and labels:
[1] = type: in vitro ADME; conditions: for % Conversion (prodrug converted to parent drug after binding to bone): 24 h incubation, 37° C.
Experimental: Amounts of parent drug “regenerated” from the phosphonated prodrug were measured as follows. Washed bone powder-bound prodrugs from the above experiment were resuspended in 400 μL PBS+2% DMSO or in 400 μL 50% (v/v in PBS+2% DMSO) human or rat serum. The suspension was incubated overnight at 37° C., centrifuged at 13,000 rpm for 2 min and the supernatant was recovered. The amount of regenerated parent drug in the supernatant was determined by measurements using the microbiological assay that was previously described for the prodrugs themselves. The amount of prodrug was deduced from standard curves of known amounts of parent drug that were used as reference for each experiment. The amount of regenerated drug assessed by this bioassay was corroborated by MIC determination. The percentage of drug regenerated in PBS or serum after the overnight incubation (Table 2) was deduced from the difference between the amount of bound prodrug and the amount of regenerated drug (not shown).

S. aureus ATCC 13709 [2] = experiment: microbe, parasite or virus in culture; type: cell-based; conditions: for Antibacterial activity (in words, from Table 1): S. aureus MIC
Experimental: (§1) Susceptibility of S. aureus strains to the known antibiotics and synthesized compounds was determined by following the guidelines set by NCCLS (M26-A). Compounds were diluted two-fold serially in DMSO and transferred to cation-adjusted Mueller Hinton broth (CAMHB; Becton Dickinson). 50 μL of compounds diluted in CAMHB was mixed with 100 μL of bacteria diluted in CAMHB in 96-well microtiter plates. The final concentration of micro-organisms in the assay was 5×10^5c.f.u. per mL and the final concentration of DMSO in the assay was 1.25%. Assays were set up in duplicate and incubated at 37° C. for 18 h. The lowest concentration of compound that inhibited visible growth was reported as the minimum inhibitory concentration (MIC).

[3] = system: S. aureus ATCC 13709^A, Novobiocin and Rifampicin resistant variant; experiment: Antibacterial susceptibility (MIC), NCCLS broth microdilution; type: cell-based
Experimental: as §1

S. aureus ATCC 29213 = experiment: as above; type: cell-based
Experimental: as §1

S. aureus ATCC 13709 [4] = experiment: microbe, parasite or virus in culture; type: cell-based; conditions: for Serum dependence of antibacterial activity (in words): MIC with versus without serum
Experimental: as §1
Susceptibility testing experiments were also carried out in the presence of serum. These experiments were carried out similar to the susceptibility testing with the following modifications. 75 μL of compounds diluted in CAMHB was mixed with 75 μL of bacteria diluted in 100% serum from any given source (commercial pooled mouse serum (MS) and human serum (HS), Equitech-Bio Inc.) or diluted in 8% purified human serum albumin (HSA) (Calbiochem). The final concentration of animal serum in the assay was 50% and the final concentration of purified human serum albumin in the assay was 4%; the concentrations of all other components were identical to those described for susceptibility testing.

SMILES	Release of parent rifabutin from bone powder-bound prodrug (in words) [1]	% Conversion (prodrug converted to parent drug after binding to bone) ([1]; 50% Heat Inactivated Rat Serum)	% Conversion (prodrug converted to parent drug after binding to bone) ([1]; 50% Rat Serum)	% Conversion (prodrug converted to parent drug after binding to bone) ([1]; PBS)	Minimum inhibitory concentration, S. aureus ATCC 13709 (S. aureus ATCC 13709 [2]; CAMHB, 37° C., 18 h)	Antibacterial activity (in words, from Table 1) (S. aureus ATCC 13709 [2])	Minimum inhibitory concentration, S. aureus ATCC 13709^A [3]	Minimum inhibitory concentration, S. aureus ATCC 29213 (S. aureus ATCC 29213; CAMHB, 37° C., 18 h)	Minimum inhibitory concentration, ATCC 13709 + 50% Human Serum (S. aureus ATCC 13709 [4]; 50% Human Serum)	Minimum inhibitory concentration, ATCC 13709 + 50% Mouse Serum (S. aureus ATCC 13709 [4]; 50% Mouse Serum)	Minimum inhibitory concentration, ATCC 13709 + 50% Rat Serum (S. aureus ATCC 13709 [4]; 50% Rat Serum)	Serum dependence of antibacterial activity (in words) (S. aureus ATCC 13709 [4])	Minimum inhibitory concentration, S. aureus ATCC 13709 (S. aureus ATCC 13709 [2])	Minimum inhibitory concentration, S. aureus ATCC 29213 (S. aureus ATCC 29213)	Minimum inhibitory concentration, ATCC 13709 + 50% Human Serum (S. aureus ATCC 13709 [4])	Minimum inhibitory concentration, ATCC 13709 + 50% Mouse Serum (S. aureus ATCC 13709 [4])	Minimum inhibitory concentration, ATCC 13709 + 50% Rat Serum (S. aureus ATCC 13709 [4])
CO[C@H]1/C=C/O[C@@]2(C)Oc3c(C)c(O)c4c(c3C2=O)C2=NC3(CCN(CC(C)C)CC3)N(C(=O)Oc3ccc(NC(=O)CCC(P(=O)(O)O)P(=O)(O)O)cc3)C2=C(NC(=O)/C(C)=C\C=C\[C@H](C)[C@H](O)[C@@H](C)[C@@H](O)[C@@H](C)[C@H](OC(C)=O)[C@@H]1C)C4=O [Compound 28]	release significant amounts of the parent rifabutin once bound to bone powder, regardless of the presence of serum	0.07 ± 0.02%	0.06 ± 0.01%	0.06 ± 0.01%	0.5 µg/mL (≈ 0.412 µM)	very low MICs whether in the absence or in the presence of serum	>128 µg/mL	0.5 µg/mL (≈ 0.412 µM)	0.25 µg/mL	2 µg/mL	0.0625 µg/mL	–	–	–	–	–	–
CO[C@H]1/C=C/O[C@@]2(C)Oc3c(C)c(O)c4c(c3C2=O)C2=NC3(CCN(CC(C)C)CC3)NC2=C(NC(=O)/C(C)=C\C=C\[C@H](C)[C@H](OC(=O)CN(C)CCOC(=O)CCC(P(=O)(O)O)P(=O)(O)O)[C@@H](C)[C@@H](O)[C@@H](C)[C@H](OC(C)=O)[C@@H]1C)C4=O [Compound 36]	release significant amounts of the parent rifabutin once bound to bone powder, regardless of the presence of serum	0.07%	0.07%	0.07%	2 µg/mL (≈ 1.68 µM)	–	>128 µg/mL	2 µg/mL (≈ 1.68 µM)	2 µg/mL	1 µg/mL	0.0625 µg/mL	significant increase in antibacterial activity in serum	–	–	–	–	–
CCC(=O)Oc1ccc(P(=O)(O)CP(=O)(O)O)cc1C(C)(C)CC(=O)N[C@@H](Cc1ccccc1)C(=O)N(C)CC(=O)O[C@@H]1[C@@H](C)[C@@H](O)[C@@H](C)[C@H](OC(C)=O)[C@H](C)[C@@H](OC)/C=C/O[C@@]2(C)Oc3c(C)c(O)c4c(c3C2=O)C2=NC3(CCN(CC(C)C)CC3)NC2=C(NC(=O)/C(C)=C\C=C\[C@@H]1C)C4=O.CCN(CC)CC.CCN(CC)CC [Compound 128]	–	–	–	–	–	near complete loss of activity	>128 µg/mL	–	–	–	–	–	>128 µg/mL	>128 µg/mL	>128 µg/mL	>128 µg/mL	>128 µg/mL
CCC(=O)Oc1cc(C)c(OCCCCC(P(=O)(O)O)P(=O)(O)O)c(C)c1CCC(=O)N[C@@H](Cc1ccccc1)C(=O)N(C)CC(=O)O[C@@H]1[C@@H](C)[C@@H](O)[C@@H](C)[C@H](OC(C)=O)[C@H](C)[C@@H](OC)/C=C/O[C@@]2(C)Oc3c(C)c(O)c4c(c3C2=O)C2=NC3(CCN(CC(C)C)CC3)NC2=C(NC(=O)/C(C)=C\C=C\[C@@H]1C)C4=O.N.N [Compound 138]	–	–	–	–	–	near complete loss of activity	>128 µg/mL	–	–	–	–	–	>128 µg/mL	>128 µg/mL	>128 µg/mL	>128 µg/mL	>128 µg/mL
CO[C@H]1/C=C/O[C@@]2(C)Oc3c(C)c(O)c4c(c3C2=O)C2=NC3(CCN(CC(C)C)CC3)NC2=C(NC(=O)/C(C)=C\C=C\[C@H](C)[C@H](OC(=O)CN(C)C(=O)NC(P(=O)(O)O)P(=O)(O)O)[C@@H](C)[C@@H](O)[C@@H](C)[C@H](OC(C)=O)[C@@H]1C)C4=O [Compound 140]	–	–	–	–	16 µg/mL (≈ 14.1 µM)	–	>128 µg/mL	16 µg/mL (≈ 14.1 µM)	128 µg/mL	32 µg/mL	4 µg/mL	weak antibacterial activity does not show a serum dependence	–	–	–	–	–
CCN(CC)CC.CO[C@H]1/C=C/O[C@@]2(C)Oc3c(C)c(O)c4c(c3C2=O)C2=NC3(CCN(CC(C)C)CC3)NC2=C(NC(=O)/C(C)=C\C=C\[C@H](C)[C@H](OC(=O)CNC(=O)Nc2ccc(CC(P(=O)(O)O)P(=O)(O)O)cc2)[C@@H](C)[C@@H](O)[C@@H](C)[C@H](OC(C)=O)[C@@H]1C)C4=O [Compound 142a]	–	–	–	–	16 µg/mL	–	>128 µg/mL	16 µg/mL	128 µg/mL	16 µg/mL	2 µg/mL	weak antibacterial activity does not show a serum dependence	–	–	–	–	–
CCN(CC)CC.CO[C@H]1/C=C/O[C@@]2(C)Oc3c(C)c(O)c4c(c3C2=O)C2=NC3(CCN(CC(C)C)CC3)NC2=C(NC(=O)/C(C)=C\C=C\[C@H](C)[C@H](OC(=O)CN(C)CC(=O)NC(P(=O)(O)O)P(=O)(O)O)[C@@H](C)[C@@H](O)[C@@H](C)[C@H](OC(C)=O)[C@@H]1C)C4=O [Compound 147]	–	–	–	–	128 µg/mL	near complete loss of activity	>128 µg/mL	128 µg/mL	16 µg/mL	2 µg/mL	32 µg/mL	–	–	–	–	–	–
CO[C@H]1/C=C/O[C@@]2(C)Oc3c(C)c(O)c4c(c3C2=O)C2=NC3(CCN(CC(C)C)CC3)NC2=C(NC(=O)/C(C)=C\C=C\[C@H](C)[C@H](OC(=O)CN(C)CC(=O)Nc2ccc(CC(P(=O)(O)O)P(=O)(O)O)cc2)[C@@H](C)[C@@H](O)[C@@H](C)[C@H](OC(C)=O)[C@@H]1C)C4=O [Compound 150]	–	–	–	–	64 µg/mL (≈ 51.6 µM)	–	>128 µg/mL	64 µg/mL (≈ 51.6 µM)	–	128 µg/mL	16 µg/mL	–	–	–	>128 µg/mL	–	–
CO[C@H]1/C=C/O[C@@]2(C)Oc3c(C)c(O)c4c(c3C2=O)C2=NC3(CCN(CC(C)C)CC3)NC2=C(NC(=O)/C(C)=C\C=C\[C@H](C)[C@H](OC(=O)CNC(=O)CCCNC(=O)NC(P(=O)(O)O)P(=O)(O)O)[C@@H](C)[C@@H](O)[C@@H](C)[C@H](OC(C)=O)[C@@H]1C)C4=O.N.N [Compound 155]	–	–	–	–	32 µg/mL	near complete loss of activity	>128 µg/mL	128 µg/mL	128 µg/mL	–	8 µg/mL	–	–	–	–	>128 µg/mL	–
